Where a name gives a salt, the structure may show the parent alone.

For experiment [1], the target named is T1, tissue plasminogen activator (tPA) (Homo sapiens, UniProt P00750).
T1 construct: gene PLAT; Human recombinant tPA (Activase)
The experiment can be described thus: chromogenic substrate protease assay with recombinant tPA; […] inhibition at […]; IC50 extrapolated ([…] min […], […] min […]). Type of experiment: biochemical.

In experiment [2] the target is T1, tissue plasminogen activator (tPA). The experiment can be described thus: chromogenic substrate protease assay with recombinant tPA (positive control inhibitor). Type of experiment: biochemical.

T1 sequence (P00750 36-562): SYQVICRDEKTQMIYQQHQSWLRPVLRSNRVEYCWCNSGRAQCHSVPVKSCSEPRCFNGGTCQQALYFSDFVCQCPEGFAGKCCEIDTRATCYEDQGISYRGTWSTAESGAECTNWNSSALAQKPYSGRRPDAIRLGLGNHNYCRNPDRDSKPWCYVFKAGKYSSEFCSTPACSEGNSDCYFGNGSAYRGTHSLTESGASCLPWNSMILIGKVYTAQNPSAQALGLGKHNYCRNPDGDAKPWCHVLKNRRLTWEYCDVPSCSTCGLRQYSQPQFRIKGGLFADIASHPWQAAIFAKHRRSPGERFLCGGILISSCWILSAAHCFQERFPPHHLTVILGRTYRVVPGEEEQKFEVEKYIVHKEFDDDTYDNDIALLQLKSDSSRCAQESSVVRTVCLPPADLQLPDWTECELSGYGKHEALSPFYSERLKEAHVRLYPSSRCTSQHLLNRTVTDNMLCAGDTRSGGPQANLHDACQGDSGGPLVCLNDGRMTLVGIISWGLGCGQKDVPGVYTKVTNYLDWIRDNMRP

On to `COc1cc(/C=C/c2cc(/C=C/c3ccc(O)c(OC)c3)n(-c3ccccc3)n2)ccc1O` [CNB-001], for which, in experiment [1], the IC50 (as a rule, the concentration at which inhibition is half-maximal) is roughly 65.2 µM.

With `N=C(N)c1ccc(C=C2CCCCC(=Cc3ccc(C(=N)N)cc3)C2=O)cc1` [tPA-STOP, 2,7-Bis-(4-amidinobenzylidene)-cycloheptan-1-one dihydrochloride], in experiment [2], the inhibition (as a rule, how much of the control response was suppressed) at 5 µM came to 83.4%.
